Data as given in US5256664A, “Antidepressant 3-halophenylpiperazinylpropyl derivatives of substituted triazolones and triazoldiones” (priority 1992, dated 1993).

Experiments:
serotonin receptors = test: in vitro binding, serotonin receptors; details: in vitro binding testing
Text: (§1) The Formula I compounds are useful pharmacologic agents with psychotropic properties. […] Specifically, nefazodone triazoldione (XIb, "nef-triazoldione") was comparatively tested with nefazodone and the 5-hydroxyethyl metabolite ("OH-nefazodone"). […] The latter observation is significant in that agents with low affinity for alpha-receptors relative to serotonin type 2 receptors are less likely to elicit certain undesirable side effects, such as sedation and lowering of blood pressure.

[1] = metabolite conversion experiment with in vitro human liver microsomal preparation; format: in vitro ADME; details: compound as substrate
[2] = HPLC of plasma from dogs given nefazodone; format: in vivo, dog; details: identified by HPLC retention time only
Text: The similarity of HPLC retention times for both keto-nefazodone and the parent drug nefazodone in many HPLC systems, as well as the small amount of the compound complicate the detection of this putative metabolite.

[3] = tested on: serotonin type 2 receptors; test: in vitro binding, serotonin type 2 receptors; details: compared with nefazodone and OH-nefazodone
Text: as §1

dopamine receptor = dopamine receptor binding; details: in vitro binding
Text: as §1

cholinergic receptor = cholinergic receptor binding; details: in vitro binding
Text: as §1

alpha-receptor = alpha-receptor binding; details: in vitro binding
Text: as §1

[4] = tested on: serotonin type 2 receptor sites; test: 5-HT2-mediated DOI-induced headshake response in rat; format: in vivo; details: acute effect
Experimental: The efficacy of nef-triazoldione at serotonin type 2 receptor sites in vivo was determined by examining its acute effect in a rat model based on the 5-HT2 -mediated DOI (chemically, 1-(2,5-dimethoxy-4-iodophenyl)-2-aminopropane)-induced headshake response. Cf: Bedard and Pycock, Neuropharmacology 16: 663-670 (1977). […] Thus the in vivo results which correlate with selective in vitro binding are indicative of useful antidepressant effects following systemic administration of these compounds.

[5] = circulating metabolite after nefazodone administration to humans and animals; format: in vivo, humans and animals (rat and dog)
Text: The present invention concerns compounds of Formula I and their acid addition salts and/or hydrates. [drawing 3] In the foregoing structural formula the symbol R denotes halogen, preferably chloro, and trifluoromethyl; Z is hydrogen and [drawing 4] with R^1 being hydrogen, halogen, C1-4 alkoxy and trifluoromethyl; and n is an integer from 2-4. The symbol X is either an oxygen atom, providing a carbonyl moiety; or is an acetyl group. The single and dotted lines represent either a covalent single bond or a double bond. The compounds of Formula I exist then in two structural subclasses, Ia and Ib. [drawing 5] Compounds of formula I arose from investigations of the metabolism of the antidepressant drug nefazodone. […] Subsequently, this new major metabolite was isolated and identified as having the following structure: [drawing 6]
It should be appreciated that compound Ib could also be obtained by enzymatic (human liver microsomes) conversion of compound Ia in vitro. Administration of nefazodone or structural analogs to mammals will result in significant plasma levels of the related Ib compounds. By "significant plasma levels" is meant that these levels are from one to several-fold higher than those of the parent drug.

[6] = compared with nefazodone and OH-nefazodone

CC(O)c1nn(CCCN2CCN(c3cccc(Cl)c3)CC2)c(=O)n1CCOc1ccccc1 (centres unmarked) [OH-nefazodone]
affinity for serotonin receptors (serotonin receptors): displays affinity for serotonin receptors

CC(=O)c1nn(CCCN2CCN(c3cccc(Cl)c3)CC2)c(=O)n1CCOc1ccccc1.Cl [keto-nefazodone, 2-(3-[4-(3-Chlorophenyl)-1-piperazinyl]propyl)-5-acetyl-2,4-dihydro-4-(2-phenoxyethyl)-3H-1,2,4-triazol-3-one hydrochloride]
metabolite produced from substrate [1]: nefazodone triazoldione (XIb) was produced and isolated
amount in plasma by HPLC [2]: small amounts

Cl.O=c1[nH]n(CCCN2CCN(c3cccc(Cl)c3)CC2)c(=O)n1CCOc1ccccc1 [nef-triazoldione, 2-(3-[4-(3-Chlorophenyl)-1-piperazinyl]propyl)-4-(2-phenoxyethyl)-4H-1,2,4-triazole-3,5(1H,2H)-dione hydrochloride]
affinity for serotonin receptors (serotonin receptors): displays affinity for serotonin receptors
binding at serotonin type 2 receptors [3]: not as robust as for both nefazodone and OH-nefazodone
dopamine receptor binding (dopamine receptor): relatively inactive
cholinergic receptor binding (cholinergic receptor): relatively inactive
alpha-receptor binding (alpha-receptor): relatively inactive
affinity at alpha-receptor binding sites relative to reference compounds (alpha-receptor; [6]): lower affinity at alpha-receptor binding sites than the two reference compounds
inhibition of the DOI-induced headshake response [4]: modest inhibition
potency in DOI-induced headshake test relative to reference compounds [4, 6]: less potent than either nefazodone or OH-nefazodone
metabolite in urine or bile samples ([5]; following nefazodone administration): No indication of this circulating metabolite had been seen in urine or bile samples
blood levels of metabolite ([5]; following nefazodone administration to humans and animals (rat and dog)): Blood levels of a new and uncharacterized major metabolite of nefazodone were observed

CCc1nn(CCCN2CCN(c3cccc(Cl)c3)CC2)c(=O)n1CCOc1ccccc1 [nefazodone, Nefazodone]
affinity for serotonin receptors (serotonin receptors): displays affinity for serotonin receptors
